Source: publication PMC5306082, “Physiologically based kinetic modeling of the bioactivation of myristicin” (Archives of Toxicology, 2016)

Assays:
DNA = conditions: ref Zhou et al. [2007a]; Kobets et al. [2016]; Phillips et al. [1984]; Randerath et al. [1984]; cited from earlier work
[1] = Microsomal conversion of myristicin, human liver microsomes; type: in vitro ADME; conditions: for Vmax / In vitro catalytic efficiency: formation of the metabolite from myristicin; for Vmax: NADPH, mean of three ± SD; for In vitro catalytic efficiency: Vmax/Km × 1000; for Scaled Vmax, in vivo / In vivo catalytic efficiency: from myristicin; for Scaled Vmax, in vivo: microsomal protein yield 32 mg/g liver; for In vivo catalytic efficiency: scaled Vmax/Km
Protocol: (§1) First, it was determined which organs are involved in the biotransformation of myristicin in rat and human. For this purpose, liver, kidney, lung, and small intestine microsomes from male Sprague–Dawley rat and pooled gender human were used. Incubations were performed by adding myristicin to incubation mixtures containing 1 mg/mL of the microsomal protein preparations and 3 mM NADPH in 0.2 M Tris–HCl (pH 7.4). After 1 min of pre-incubation at 37 °C, myristicin (final concentration, 1000 μM) was added from a 100 times concentrated stock solution in DMSO so that the final DMSO content was 1 % (v/v). Incubations were carried out for 30 min after which the reactions were terminated by adding 25 µl (0.25 times the incubation volume) of ice-cold ACN. Samples were centrifuged for 5 min at 13,000×g, and the supernatant was stored at −20 °C until UPLC analysis. As metabolism of myristicin was observed only in incubations with liver microsomes for male rats and pooled gender human, the determination of kinetic constants for the formation of microsomal metabolites was performed only for the liver fractions. Incubations to determine kinetic constants were performed following the conditions described above using final concentrations of myristicin from 25 to 1000 μM for rat and human liver. In all incubations, the final concentration of DMSO, in which myristicin was dissolved, was kept at 1 % (v/v). The formation of different microsomal metabolites was linear with time and microsomal protein concentration under the conditions described. Blank incubations were performed in the absence of the cofactor NADPH. All incubations were performed in triplicate.
(§2) Secondary metabolism of the relevant 1′-hydroxy metabolite of myristicin was taken into account by determining the kinetic constants for its conversion in (a) glucuronidation, (b) sulfation, and (c) oxidation, again under conditions that allowed adequate definition of kinetic constants and with <10 % substrate conversion. Incubation samples were subjected to UPLC analysis that was performed as described previously (Punt et al. [2008]). Identification was achieved by comparing the UV spectra of the formed metabolites to the spectra of the synthesized 1′-hydroxymyristicin and 1′-oxomyristicin reference standards. Quantification of all formed metabolites was done by comparing the peak areas to those of calibration curves of the corresponding reference compounds, determined using UPLC with photodiode array detection (UPLC-PDA). The UPLC system was composed of a Waters (Waters, Milford, MA) Acquity solvent manager, sample manager, and photodiode array detector, equipped with Water Acquity UPLC BEH C18 column.
(§3) The gradient for analysis of microsomal metabolites was performed with 100 % ACN and ultrapure water containing 0.1 % (v/v) TFA. The flow rate was 0.6 ml/min. The gradient started at 10 % ACN, increased to 50 % ACN over 4 min, increased to 80 % over 0.5 min, followed by decrease to 10 % ACN over 0.5 min, and finally kept at 10 % for 1 min.

[2] = Microsomal conversion of myristicin, male rat liver microsomes; type: in vitro ADME; conditions: for Vmax / In vitro catalytic efficiency: formation of the metabolite from myristicin; for Vmax: NADPH, mean of three ± SD; for In vitro catalytic efficiency: Vmax/Km × 1000; for Scaled Vmax, in vivo / In vivo catalytic efficiency: from myristicin; for Scaled Vmax, in vivo: microsomal protein yield 35 mg/g liver; for In vivo catalytic efficiency: scaled Vmax/Km
Protocol: as §1, §2, §3

[3] = test system: freshly isolated rat hepatocytes in primary culture; conditions: 10^−6 to 10^−3 M; ref Howes et al. [1990]; cited from earlier work
[4] = Oxidation of 1′-hydroxymyristicin to 1′-oxomyristicin, human liver microsomes; type: in vitro ADME
Protocol: (§4) The kinetic constants for the enzymatic conversion of 1′-hydroxymyristicin to 1′-oxomyristicin were determined using incubation mixtures containing (final concentrations) 3 mM NAD^+, 2 mM GSH, and 1 mg/ml rat or human liver microsomes in 0.2 M Tris–HCl (pH 7.4). GSH was added to the incubation mixtures to trap the reactive 1′-oxo metabolite formed after oxidation of 1′-hydroxymyristicin. The level of GSH in the incubations was optimized in a previous study to obtain maximum scavenging of 1′-oxoestragole (Punt et al. [2009]). To this end, incubations were performed in the presence of increasing concentrations of GSH, ranging from 2 to 10 mM. […] Kinetic constants for this reaction in rat and human liver were derived by performing incubations with NAD^+ as a cofactor, given that in rat and human liver, NAD^+ is mainly present in an oxidized form with levels of NAD^+ being much higher than those of NADH. In a previous study, it was shown that the highest level of 1′-hydroxy alkenylbenzene oxidation occurs in incubations with microsomes in the presence of NAD^+ as cofactor. […] The enzyme responsible for the oxidation may be 17β-hydroxysteroid dehydrogenase type 2 (17β-HSD2) (Punt et al. [2010]). Prior to the addition of 1′-hydroxymyristicin at final concentrations ranging between 10 and 4000 μM to the incubation mixture from 100 times concentrated stock solutions in DMSO, samples were pre-incubated for 1 min at 37 °C. Reactions were terminated after 10 min of incubation at 37 °C by adding 25 μl (0.25 times the incubation volume) of ice-cold ACN. The formation of the GSH conjugate of 1′-oxomyristicin (GS-1′-oxomyristicin) was linear with time and microsomal protein concentration under the experimental conditions used. Blank incubations were performed without the cofactor NAD^+. Incubations were performed in triplicate. All samples were centrifuged for 5 min at 13,000×g, and the supernatant was stored at −20 °C until UPLC analysis.
(§5) Quantification of GS-1′-oxomyristicin was based on a calibration curve of the GSH adduct of the synthesized 1′-oxymyristicin made as previously described (van den Berg et al. [2012]; Punt et al. [2009]; Martati et al. [2011]; Al-Subeihi et al. [2011]). In short, a 60 μM concentration of the synthetic standard of 1′-oxomyristicin, dissolved in ACN, was incubated with different concentrations of GSH (i.e., 0–20 μM) in 0.2 M Tris–HCl (pH 7.4) for 6 h at 37 °C, resulting in full conversion of the GSH to GS-1′-oxymyristicin. Quantification was done by comparing the peak areas of the formed GS-1′-oxo metabolite in the incubation mixtures with peak areas of the GS-1′-oxymyristicin calibration curve thus obtained at a wavelength of 212 nm. The gradient for analysis of the metabolite consisted of a mixture of ACN and ultrapure water containing 0.1 % (v/v) TFA. The flow rate was 0.6 ml/min, The gradient started with 10 % ACN, increased to 30 % ACN over 2.5 min, after which ACN was increased to 80 % over 0.5 min, kept at 80 % for 0.5 min, followed by a decrease to 10 % over 0.5 min, and finally kept at 10 % for 0.5 min.

[5] = Oxidation of 1′-hydroxymyristicin to 1′-oxomyristicin, rat liver microsomes; type: in vitro ADME
Protocol: as §4, §5

[6] = Glucuronidation of 1′-hydroxymyristicin, male rat liver S9; type: in vitro ADME
Protocol: (§6) The kinetic constants for the metabolic conversion of 1′-hydroxymyristicin to 1′-hydroxymyristicin glucuronide (HMG) by both male rat and human liver fractions were determined as described previously for the related 1′-hydroxyalkenylbenzenes (Punt et al. [2008]; van den Berg et al. [2012]; Punt et al. [2009]; Martati et al. [2011], [2012]; Al-Subeihi et al. [2011], [2012]). Briefly, incubations contained (final concentrations) 10 mM of UDPGA and 0.5 mg/ml of male Sprague–Dawley or pooled gender human S9 protein in 0.2 M Tris–HCl (pH 7.4) containing 10 mM of MgCl2. To overcome enzyme latency and to obtain maximal glucuronidation activity, incubations containing S9 were pretreated on ice with 0.025 mg/ml alamethicin added from a 200 times concentrated stock dissolved in methanol (Fisher et al. [2000]; Lin and Wong [2002]). After 15 min of alamethicin treatment, samples were pre-incubated at 37 °C for 1 min, and reactions were subsequently started by adding 1′-hydroxymyristicin at final concentrations of 10 to 1200 μM. 1′-Hydroxymyristicin was added from 100 times concentrated stock solutions in DMSO. The reaction mixtures were incubated for 30 and 180 min for rat and human, respectively, and terminated by adding 25 µl (0.25 times the incubation volume) of ice-cold ACN. Blank incubations were carried out in the absence of the cofactor UDPGA. Experiments were performed in triplicate. The longer incubation time in human samples was required due to the lower rate of glucuronidation. The formation of 1′-hydroxymyristicin glucuronide was linear with time and the S9 protein concentration under the experimental conditions described. All samples were centrifuged for 5 min at 16,000×g, and the supernatant was stored at −20 °C until ultra-performance liquid chromatography (UPLC) analysis.
(§7) 1′-Hydroxymyristicin glucuronide was estimated based on the comparison of the peak area of the formed metabolite to the calibration curve of 1′-hydroxymyristicin at a wavelength of 210 nm. The flow rate was 0.6 ml/min. The gradient was made using a mixture of ACN and ultrapure water containing 0.1 % (v/v) TFA.

[7] = Glucuronidation of 1′-hydroxymyristicin, human liver S9; type: in vitro ADME
Protocol: as §6, §7

[8] = 1′-hydroxymyristicin to 1′-oxomyristicin, Vmax/Km
[9] = 1′-hydroxymyristicin to 1′-oxomyristicin, microsomes, NAD+, GSH trapping
[10] = oxidation of 1′-hydroxymyristicin, scaled Vmax/Km
[11] = 1′-hydroxymyristicin to its glucuronide, S9, UDPGA
[12] = 1′-hydroxymyristicin to its glucuronide, Vmax/Km
[13] = glucuronidation of 1′-hydroxymyristicin, S9 protein yield 143 mg/g liver
[14] = glucuronidation of 1′-hydroxymyristicin, scaled Vmax/Km

Structure (SMILES): C=CCc1ccc(OC)cc1 [estragole]
- DNA adduct formation, result (DNA): positive results

Structure (SMILES): COc1cc(CC(O)CO)cc2c1OCO2 (stereo not shown) [2′,3′-Dihydroxymyristicin]
- Vmax [1]: 0.08 ± 0.01 nmol min^−1 (mg microsomal or S9 protein)^−1
- In vitro catalytic efficiency [1]: 2.424 μl min^−1 (mg microsomal or S9 protein)^−1
- Scaled Vmax, in vivo [1]: 0.154 μmol/h/g tissue
- In vivo catalytic efficiency [1]: 0.0047 ml/h/g tissue
- Vmax [2]: 0.44 ± 0.08 nmol min^−1 (mg microsomal or S9 protein)^−1
- In vitro catalytic efficiency [2]: 27.5 μl min^−1 (mg microsomal or S9 protein)^−1
- Scaled Vmax, in vivo [2]: 0.924 μmol/h/g tissue
- In vivo catalytic efficiency [2]: 0.0578 ml/h/g tissue

Structure (SMILES): COc1cc(/C=C/CO)cc2c1OCO2 [3′-Hydroxymyristicin, 3′-hydroxymyristicin]
- Vmax [1]: 0.29 ± 0.14 nmol min^−1 (mg microsomal or S9 protein)^−1
- In vitro catalytic efficiency [1]: 0.178 μl min^−1 (mg microsomal or S9 protein)^−1
- Scaled Vmax, in vivo [1]: 0.557 μmol/h/g tissue
- In vivo catalytic efficiency [1]: 0.0003 ml/h/g tissue
- Vmax [2]: 0.47 ± 0.09 nmol min^−1 (mg microsomal or S9 protein)^−1
- In vitro catalytic efficiency [2]: 5.663 μl min^−1 (mg microsomal or S9 protein)^−1
- Scaled Vmax, in vivo [2]: 0.987 μmol/h/g tissue
- In vivo catalytic efficiency [2]: 0.0119 ml/h/g tissue

Structure (SMILES): C=CCc1ccc(OC)c(OC)c1 [methyleugenol]
- unscheduled DNA synthesis (UDS) [3]: induced unscheduled DNA synthesis (UDS)
- DNA adduct formation, result (DNA): positive results

Structure (SMILES): C=CC(=O)c1cc(OC)c2c(c1)OCO2 [1′-Oxomyristicin, 1′-oxomyristicin]
- In vitro catalytic efficiency [4, 8]: 9.864 μl min^−1 (mg microsomal or S9 protein)^−1
- Vmax [4, 9]: 32 ± 14 nmol min^−1 (mg microsomal or S9 protein)^−1
- Scaled Vmax, in vivo ([4]; oxidation of 1′-hydroxymyristicin, microsomal protein yield 32 mg/g liver): 61.44 μmol/h/g tissue
- In vivo catalytic efficiency [4, 10]: 0.0189 ml/h/g tissue
- In vitro catalytic efficiency [5, 8]: 7.369 μl min^−1 (mg microsomal or S9 protein)^−1
- Vmax [5, 9]: 43.64 ± 20.9 nmol min^−1 (mg microsomal or S9 protein)^−1
- Scaled Vmax, in vivo ([5]; oxidation of 1′-hydroxymyristicin, microsomal protein yield 35 mg/g liver): 91.644 μmol/h/g tissue
- In vivo catalytic efficiency [5, 10]: 0.0155 ml/h/g tissue

Structure (SMILES): C=CC(OC1OC(C(=O)O)C(O)C(O)C1O)c1cc(OC)c2c(c1)OCO2 (stereo not shown) [1′-Hydroxymyristicin glucuronide, 1′-hydroxymyristicin glucuronide]
- Vmax [6, 11]: 8.6 ± 2.0 nmol min^−1 (mg microsomal or S9 protein)^−1
- In vitro catalytic efficiency [6, 12]: 10.287 μl min^−1 (mg microsomal or S9 protein)^−1
- Scaled Vmax, in vivo [6, 13]: 73.788 μmol/h/g tissue
- In vivo catalytic efficiency [6, 14]: 0.0883 ml/h/g tissue
- Km at 30 min ([6]; male, Sprague-Dawley, rat, pH 7.4): 836 ± 336 µM
- Vmax [7, 11]: 0.08 ± 0.03 nmol min^−1 (mg microsomal or S9 protein)^−1
- In vitro catalytic efficiency [7, 12]: 0.025 μl min^−1 (mg microsomal or S9 protein)^−1
- Km at 180 min ([7]; both sexes, human, pH 7.4): 3140 ± 2430 µM
- Scaled Vmax, in vivo [7, 13]: 0.6864 μmol/h/g tissue
- In vivo catalytic efficiency [7, 14]: 0.0002 ml/h/g tissue
